Experimental findings from patent US20200121684A1, “MODULATORS OF BTK PROTEOLYSIS AND METHODS OF USE” (Yale University, priority 2018, published 2020) are described below.

As usually defined, the DC50 is the concentration at which degradation of the target reaches its halfway point. The Dmax is the greatest extent of degradation seen. The Cmax is the maximum level reached in the sampled fluid or tissue.

For series [1], the target named is T1, BTK (Homo sapiens, UniProt Q06187).
T1 construct: host or cells: NAMALWA
T1 sequence (Q06187 whole entry): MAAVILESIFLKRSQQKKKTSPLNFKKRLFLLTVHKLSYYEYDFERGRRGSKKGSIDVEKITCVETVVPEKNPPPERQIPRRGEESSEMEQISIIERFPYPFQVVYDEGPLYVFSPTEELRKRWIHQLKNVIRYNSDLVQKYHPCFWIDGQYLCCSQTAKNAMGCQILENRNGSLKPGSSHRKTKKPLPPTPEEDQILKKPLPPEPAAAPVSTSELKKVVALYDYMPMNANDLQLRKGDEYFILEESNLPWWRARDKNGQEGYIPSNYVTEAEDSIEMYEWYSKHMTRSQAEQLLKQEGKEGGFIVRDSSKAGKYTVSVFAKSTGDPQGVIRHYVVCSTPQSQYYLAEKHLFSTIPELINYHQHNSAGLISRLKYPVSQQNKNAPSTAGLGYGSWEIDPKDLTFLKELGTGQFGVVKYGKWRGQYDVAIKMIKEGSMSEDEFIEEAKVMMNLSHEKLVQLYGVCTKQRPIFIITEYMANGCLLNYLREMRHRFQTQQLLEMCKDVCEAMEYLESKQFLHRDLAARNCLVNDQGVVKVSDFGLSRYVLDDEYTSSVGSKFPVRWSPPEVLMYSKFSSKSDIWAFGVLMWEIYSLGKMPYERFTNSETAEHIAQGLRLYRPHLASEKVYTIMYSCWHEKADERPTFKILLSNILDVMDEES
The series can be described thus: BTK degradation in NAMALWA cells, immunoblot. It is filed as cell-based. On the technique in general: A western blot detects proteins with antibodies after separation by electrophoresis.

Series [2] deals with T2, HER3 (Homo sapiens, UniProt P21860).
T2 construct: endogenous in cells
T2 sequence (P21860 20-1342): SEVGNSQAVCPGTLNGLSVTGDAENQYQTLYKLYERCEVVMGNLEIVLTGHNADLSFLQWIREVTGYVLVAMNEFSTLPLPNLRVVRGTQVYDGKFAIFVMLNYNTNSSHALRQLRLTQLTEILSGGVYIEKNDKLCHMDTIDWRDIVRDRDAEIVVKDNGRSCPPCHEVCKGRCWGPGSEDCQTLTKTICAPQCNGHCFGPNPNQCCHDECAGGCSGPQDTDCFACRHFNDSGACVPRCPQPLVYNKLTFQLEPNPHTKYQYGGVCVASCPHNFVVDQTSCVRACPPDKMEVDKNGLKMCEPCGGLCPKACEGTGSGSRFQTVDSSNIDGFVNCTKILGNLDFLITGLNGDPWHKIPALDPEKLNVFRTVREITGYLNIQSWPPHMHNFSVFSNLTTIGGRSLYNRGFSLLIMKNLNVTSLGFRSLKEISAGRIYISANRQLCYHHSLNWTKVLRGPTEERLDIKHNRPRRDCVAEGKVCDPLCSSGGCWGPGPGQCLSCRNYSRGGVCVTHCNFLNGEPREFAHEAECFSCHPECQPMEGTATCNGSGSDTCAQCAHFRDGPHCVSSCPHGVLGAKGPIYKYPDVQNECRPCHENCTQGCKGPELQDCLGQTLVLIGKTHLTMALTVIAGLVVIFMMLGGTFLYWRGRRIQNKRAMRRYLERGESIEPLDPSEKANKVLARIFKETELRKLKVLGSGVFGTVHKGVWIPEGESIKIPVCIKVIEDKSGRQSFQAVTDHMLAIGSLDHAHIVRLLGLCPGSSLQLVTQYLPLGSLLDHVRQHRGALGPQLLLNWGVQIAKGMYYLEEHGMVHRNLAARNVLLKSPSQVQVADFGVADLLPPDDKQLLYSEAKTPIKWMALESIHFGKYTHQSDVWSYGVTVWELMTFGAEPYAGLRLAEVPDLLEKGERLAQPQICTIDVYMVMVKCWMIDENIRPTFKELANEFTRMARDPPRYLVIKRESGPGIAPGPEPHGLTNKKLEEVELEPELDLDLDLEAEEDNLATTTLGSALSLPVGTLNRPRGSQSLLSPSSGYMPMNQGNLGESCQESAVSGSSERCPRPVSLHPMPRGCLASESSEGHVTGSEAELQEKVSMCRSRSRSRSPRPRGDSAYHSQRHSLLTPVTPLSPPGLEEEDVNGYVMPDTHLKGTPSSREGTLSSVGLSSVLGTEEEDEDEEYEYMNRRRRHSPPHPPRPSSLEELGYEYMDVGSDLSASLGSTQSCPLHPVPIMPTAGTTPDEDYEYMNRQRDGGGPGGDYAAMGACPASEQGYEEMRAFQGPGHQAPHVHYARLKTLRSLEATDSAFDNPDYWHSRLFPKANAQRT
The experiment in a line: HER3 (ERBB3) degradation, immunoblot. In kind it is cell-based. Conditions: Table 5.

Series [3] in a line: Pharmacokinetics after IV compound administration in mice. The conditions noted are these: for pharmacokinetic profile relative to COMPOUND 102: IV mice; for Clearance (Cl) / Half Life (t1/2) / Cmax / AUC(0-t): IV mice (1 mg/Kg); for Cmax: Tmax 0.033 h; for AUC(0-t): mouse, in vivo, read-out: Exposure (AUClast). It is filed as in vivo.

Read-outs that look alike come from different tables or passages of the source.

As for `CN1C(=O)CCC(N2C(=O)c3ccc(NC(=O)COCCOCCN4CCC(n5nc(-c6ccc(Oc7ccccc7)cc6)c6c(N)ncnc65)CC4)cc3C2=O)C1=O` (centres unmarked) [Compound 130, 2-(2-(2-(4-(4-amino-3-(4-phenoxyphenyl)-1H-pyrazolo[3,4-d]pyrimidin-1-yl)piperidin-1-yl)ethoxy)ethoxy)-N-(2-(1-methyl-2,6-dioxopiperidin-3-yl)-1,3-dioxoisoindolin-5-yl)acetamide], the “ability to degrade BTK” value in series [1] (NAMALWA cells) is “neither ibrutinib nor Compound 130 were able to induce degradation of BTK”.

As to `Cc1ncsc1-c1ccc(CNC(=O)[C@@H]2C[C@@H](O)CN2C(=O)[C@@H](NC(=O)COCCOCCOCCOCCN2CCN(C3CCC(n4nc(-c5ccc(Oc6ccccc6)cc5)c5c(N)ncnc54)CC3)CC2)C(C)(C)C)cc1` (stereo partly drawn) [Compound 114, (2S,4R)-1-((S)-17-(4-(4-(4-amino-3-(4-phenoxyphenyl)-1H-pyrazolo[3,4-d]pyrimidin-1-yl)cyclohexyl)piperazin-1-yl)-2-tert-butyl-4-oxo-6,9,12,15-tetraoxa-3-azaheptadecane)-4-hydroxy-N-(4-(4-methylthiazol-5-yl)benzyl)pyrrolidine-2-carboxamide], the “HER3 Degradation” value in series [2] was “No”.

Turning to `Cc1ncsc1-c1ccc(CNC(=O)[C@@H]2C[C@@H](O)CN2C(=O)[C@@H](NC(=O)COCCOCCOCCOCCCCCCN2CCC(n3nc(-c4ccc(Oc5ccccc5)cc4)c4c(N)ncnc43)CC2)C(C)(C)C)cc1` [Compound 115, (2S,4R)-1-((S)-22-(4-(4-amino-3-(4-phenoxyphenyl)-1H-pyrazolo[3,4-d]pyrimidin-1-yl)piperidin-1-yl)-2,2-dimethyl-5-oxo-7,10,13,16-tetraoxa-4-azadocosanecarbonyl)-4-hydroxy-N-(4-(4-methylthiazol-5-yl)benzyl)pyrrolidine-2-carboxamide], the “HER3 Degradation” value in series [2] was “No”.

Regarding `Nc1ncnc2c1c(-c1ccc(Oc3ccccc3)cc1)nn2C1CCN(CCOCCOCC(=O)Nc2cccc3c2C(=O)N(C2CCC(=O)NC2=O)C3=O)CC1` (centres unmarked) [Compound 101, 2-(2-(2-(4-(4-amino-3-(4-phenoxyphenyl)-1H-pyrazolo[3,4-d]pyrimidin-1-yl)piperidin-1-yl)ethoxy)ethoxy)-N-(2-(2,6-dioxopiperidin-3-yl)-1,3-dioxoisoindolin-4-yl)acetamide], the “ability to degrade BTK” value in series [1] (NAMALWA cells) was “inability to degrade BTK”.

`Nc1ncnc2c1c(-c1ccc(Oc3ccccc3)cc1)nn2C1CCN(CCOCC(=O)Nc2cccc3c2C(=O)N(C2CCC(=O)NC2=O)C3=O)CC1` (centres unmarked) [Compound 100, 2-(2-(4-(4-amino-3-(4-phenoxyphenyl)-1H-pyrazolo[3,4-d]pyrimidin-1-yl)piperidin-1-yl)ethoxy)-N-(2-(2,6-dioxopiperidin-3-yl)-1,3-dioxoisoindolin-4-yl)acetamide]: in series [1] (NAMALWA cells), the “ability to degrade BTK” value is “inability to degrade BTK”.

On to `Cc1ncsc1-c1ccc(CNC(=O)[C@@H]2C[C@@H](O)CN2C(=O)[C@@H](NC(=O)COCCOCCOCCOCCN2CCC(n3nc(-c4ccc(Oc5ccccc5)cc4)c4c(N)ncnc43)CC2)C(C)(C)C)cc1` [Compound 109, (2S,4R)-1-((S)-17-(4-(4-amino-3-(4-phenoxyphenyl)-1H-pyrazolo[3,4-d]pyrimidin-1-yl)piperidin-1-yl)-2-tert-butyl-4-oxo-6,9,12,15-tetraoxa-3-azaheptadecane)-4-hydroxy-N-(4-(4-methylthiazol-5-yl)benzyl)pyrrolidine-2-carboxamide], for which the “HER3 Degradation” value in series [2] is reported as “No”.

On to `Nc1ncnc2c1c(-c1ccc(Oc3ccccc3)cc1)nn2C1CCN(CCCCCCOCCCCCCOCC(=O)Nc2cccc3c2C(=O)N(C2CCC(=O)NC2=O)C3=O)CC1` (centres unmarked) [Compound 107, 2-(6-(6-(4-(4-amino-3-(4-phenoxyphenyl)-1H-pyrazolo[3,4-d]pyrimidin-1-yl)piperidin-1-yl)hexyloxy)hexyloxy)-N-(2-(2,6-dioxopiperidin-3-yl)-1,3-dioxoisoindolin-4-yl)acetamide], for which the “HER3 Degradation” value in series [2] is listed as “No”.

For `Nc1ncnc2c1c(-c1ccc(Oc3ccccc3)cc1)nn2C1CCN(CCOCCOCCOc2ccc3c(c2)C(=O)N(C2CCC(=O)NC2=O)C3=O)CC1` (centres unmarked) [COMPOUND 131, 5-(2-(2-(2-(4-(4-amino-3-(4-phenoxyphenyl)-1H-pyrazolo[3,4-d]pyrimidin-1-yl)piperidin-1-yl)ethoxy)ethoxy)ethoxy)-2-(2,6-dioxopiperidin-3-yl)isoindoline-1,3-dione], the “degradation potency/profile compared with COMPOUND 102” value in series [1] (NAMALWA cells) is listed as “similarly potent degradation profile as COMPOUND 102”. The molecule further came in with a DC50 in series [1] (Table 5, NAMALWA cells) of 11 nM. The DC50 in series [1] (Table 6, in NAMALWA cells line) turned out to be 11 nM. Further, the Dmax in series [1] (Table 6, in NAMALWA cells line, read-out: Dmax) was over 99%. For the same molecule, in series [3], the “pharmacokinetic profile relative to COMPOUND 102” value is given as “superior pharmacokinetic profiles relative to COMPOUND 102”, the “Clearance (Cl)” value was 102 mL/min/kg, the “Half Life (t1/2)” value is 1.62 h and the Cmax was 831 ng/mL. Moreover, the AUC(0-t) in series [3] was determined as 166 ng·h/mL.

On to `Nc1ncnc2c1c(-c1ccc(Oc3ccccc3)cc1)nn2C1CCN(CCCOCCCOCCC(=O)Nc2cccc3c2C(=O)N(C2CCC(=O)NC2=O)C3=O)CC1` (centres unmarked) [Compound 103, 3-(3-(3-(4-(4-amino-3-(4-phenoxyphenyl)-1H-pyrazolo[3,4-d]pyrimidin-1-yl)piperidin-1-yl)propoxy)propoxy)-N-(2-(2,6-dioxopiperidin-3-yl)-1,3-dioxoisoindolin-4-yl)propanamide], for which the “HER3 Degradation” value in series [2] is reported as “No”.

As to `Cc1ncsc1-c1ccc(CNC(=O)[C@@H]2C[C@@H](O)CN2C(=O)[C@@H](NC(=O)COCCCCCOCCCCCCN2CCC(n3nc(-c4ccc(Oc5ccccc5)cc4)c4c(N)ncnc43)CC2)C(C)(C)C)cc1` [Compound 111, (2S,4R)-1-((S)-2-(2-(5-(6-(4-(4-amino-3-(4-phenoxyphenyl)-1H-pyrazolo[3,4-d]pyrimidin-1-yl)piperidin-1-yl)hexyloxy)pentyloxy)acetamido)-3,3-dimethylbutanoyl)-4-hydroxy-N-(4-(4-methylthiazol-5-yl)benzyl)pyrrolidine-2-carboxainide], the “HER3 Degradation” value in series [2] is listed as “No”.

Take `Cc1ncsc1-c1ccc(CNC(=O)[C@@H]2C[C@@H](O)CN2C(=O)[C@@H](NC(=O)COCCOCCN2CCC(n3nc(-c4ccc(Oc5ccccc5)cc4)c4c(N)ncnc43)CC2)C(C)(C)C)cc1` [Compound 129, (2S,4R)-1-((S)-2-(2-(2-(2-(4-(4-amino-3-(4-phenoxyphenyl)-1H-pyrazolo[3,4-d]pyrimidin-1-yl)piperidin-1-yl)ethoxy)ethoxy)acetamido)-3,3-dimethylbutanoyl)-4-hydroxy-N-(4-(4-methylthiazol-5-yl)benzyl)pyrrolidine-2-carboxamide]: the Dmax is under 50% in series [1] (NAMALWA cells, read-out: Dmax) and under 50% in series [1] (Table 6, in NAMALWA cells line). The DC50 in series [1] (Table 5, NAMALWA cells) is over 1000 nM; in series [1] (Table 6, in NAMALWA cells line), over 1000 nM. The Max in series [1] (Table 5, at 2.5 μM) was determined as 49%.

In the case of `Nc1ncnc2c1c(-c1ccc(Oc3ccccc3)cc1)nn2C1CCN(CCCCOCCCCOCC(=O)Nc2ccc3c(c2)C(=O)N(C2CCC(=O)NC2=O)C3=O)CC1` (centres unmarked) [Compound 105, 2-[4-[4-[4-[4-amino-3-(4-phenoxyphenyl)pyrazolo[3,4-d]pyrimidin-1-yl]-1-piperidyl]butoxy]butoxy]-N-[2-(2,6-dioxo-3-piperidyl)-1,3-dioxo-isoindolin-5-yl]acetamide], in series [2], the “HER3 Degradation” value is “No”.

In the case of `Cc1ncsc1-c1ccc(CNC(=O)[C@@H]2C[C@@H](O)CN2C(=O)[C@H](C(C)C)N2Cc3ccccc3C2=O)c(OCCCOCCC(=O)N2CCC(n3nc(-c4ccc(Oc5ccccc5)cc4)c4c(N)ncnc43)CC2)c1` [Compound 128, (2S,4R)—N-(2-(3-(3-(4-(4-amino-3-(4-phenoxyphenyl)-1H-pyrazolo[3,4-d]pyrimidin-1-yl)piperidin-1-yl)-3-oxopropoxy)propoxy)-4-(4-methylthiazol-5-yl)benzyl)-4-hydroxy-1-((S)-3-methyl-2-(1-oxoisoindolin-2-yl)butanoyl)pyrrolidine-2-carboxamide], the Dmax in series [1] (NAMALWA cells, read-out: Dmax) was under 50%. Moreover, in series [1] (Table 6, in NAMALWA cells line), the DC50 was over 1000 nM and the Dmax is under 50%.

For the molecule `Nc1ncnc2c1c(-c1ccc(Oc3ccccc3)cc1)nn2C1CCN(CCOCCOCCOc2ccc3c(c2)CN(C2CCC(=O)NC2=O)C3=O)CC1` (centres unmarked) [COMPOUND 135, 3-(5-(2-(2-(2-(4-(4-amino-3-(4-phenoxyphenyl)-1H-pyrazolo[3,4-d]pyrimidin-1-yl)piperidin-1-yl)ethoxy)ethoxy)ethoxy)-1-oxoisoindolin-2-yl)piperidine-2,6-dione], in series [1] (NAMALWA cells), the “degradation potency/profile compared with COMPOUND 102” value is listed as “similarly potent to COMPOUND 102”. For the same molecule, the Dmax in series [1] (NAMALWA cells, read-out: Dmax) was over 99%. The molecule further registered a DC50 in series [1] (Table 5, NAMALWA cells) of 8 nM. In series [1] (Table 6, in NAMALWA cells line), it took 8 nM to reach half-maximal degradation (DC50) and the Dmax is listed as over 99%. Further, in series [3], the “pharmacokinetic profile relative to COMPOUND 102” value is “superior pharmacokinetic profiles relative to COMPOUND 102”, the “Clearance (Cl)” value was 40.8 mL/min/kg, the “Half Life (t1/2)” value was determined as 1.64 h and the Cmax is 2100 ng/mL. In addition, in series [3], the AUC(0-t) was determined as 405 ng·h/mL.

Consider `Cc1ncsc1-c1ccc(CNC(=O)[C@@H]2C[C@@H](O)CN2C(=O)[C@H](C(C)C)N2Cc3ccccc3C2=O)c(OCCCCOCCCCN2CCC(n3nc(-c4ccc(Oc5ccccc5)cc4)c4c(N)ncnc43)CC2)c1` [Compound 127, (2S,4R)—N-(2-(4-(4-(4-(4-amino-3-(4-phenoxyphenyl)-1H-pyrazolo[3,4-d]pyrimidin-1-yl)piperidin-1-yl)butoxy)butoxy)-4-(4-methylthiazol-5-yl)benzyl)-4-hydroxy-1-((S)-3-methyl-2-(1-oxoisoindolin-2-yl)butanoyl)pyrrolidine-2-carboxamide], for which the Dmax in series [1] (NAMALWA cells, read-out: Dmax) is under 50%; in series [1] (Table 6, in NAMALWA cells line), under 50%. The DC50 in series [1] (Table 5, NAMALWA cells) is over 1000 nM; in series [1] (Table 6, in NAMALWA cells line), over 1000 nM.
